Data from US5157052A, “Method for inhibiting IgE production” (priority 1990, dated 1992).

System: IgG1
Assay: Serum IgG1 in anti-IgD stimulated mice (two site sandwich ELISA, Assay B)
Format: in vivo, mouse (Balb/c female)
Protocol: Sera from mice treated with compounds in accordance with the method of the invention are analyzed for levels of IgG1, IgG2a, IgG3, and IgM.
Mouse IgG1 measurement by a two site sandwich ELISA is as follows. About 5 μg of rabbit anti mouse IgG (Organon-Teknika-Cappel, Malvern, Pa.) is attached to the wells of a NuncImmulon 96 well plate and IgG1 levels are determined in substantial accordance with Assay A except with the following changes. The IgG1 standard is purchased from Southern BioTech, Birmingham, Ala., and stored at 10 μg/ml in 2% NBS in PBS at 4° C. The standard curve is prepared by diluting the mouse IgG1 standard in 0.05% Tween-80 in PBS, and is linear between 3.9 and 250 ng/ml. Serum containing IgG1 is diluted 1/10,000 to 1/1,000,000 in 0.05% Tween 80-PBS, to place the measurement within the standard curve. Standard IgG1 (or diluted serum) is incubated at about 37° C. for 1 hour and the plates are washed with 0.05% Tween 80-PBS as described in Assay A. About a 1/3,000 dilution of Goat anti mouse IgG1 (Southern Biotech, Birmingham, Ala.) conjugated to alkaline phosphatase in 0.05% Tween 80-PBS is added to each well and incubated at about 37° C. for 60 minutes. The plate is washed and colorimetric substrate, prepared as described by the manufacturer (Alkaline Phosphatase Substrate System, KPL, Gaithersburg, Md.), is added and optical density and data analysis is performed in the same manner as Assay A.
Sera from the mice described in Example 13 are analyzed for the levels of IgG1, IgG2a, and IgG3 by Assays B, C, and D, respectively.
Two groups of 4 Balb/c female mice per group are injected with both 100 μg FF1-4D5 antibody and 100 μg H∂A1 antibody. One of these groups is a stimulated control designated Group B. On day 3 and 4, the other group is injected with 40 μg (±) methyl 11α, 16-dihydroxy-1-methyl-9-oxoprosta-4Z,13E-dien-1-oate. Another group is injected with only PBS as an unstimulated control (Group A). On day -1 and 8, 50-100 μl of serum is recovered and analyzed for IgE, IgG1 and IgG2a by Assays A, B, and C, respectively.
3 groups of 4 Balb/c female mice per group are injected with both 100 μg FF1-4D5 antibody and 100 μg H∂A1 antibody on day 0. Group A is given no further treatment. On day 3 and 4, one group of mice is injected with 20 μg (±) methyl 2-[2-[3R-3α-hydroxy-2β-(4-hydroxy-4-methyl-1E-octenyl-5-oxo-1α-cyclopentyl]-methyl]cyclopropanebutanoate (Group B) and another group with 20 μg (±) methyl 2-[2-[3R-3α-hydroxy-2β-(4-hydroxy-4-methyl-1E-octenyl)-5-oxo-1α-cyclopentyl]ethyl]cyclopropanepropanoate (Group C) as in Example 13. On day -1 and 8, 50-100 μl of serum is recovered and analyzed for IgE, IgG1, IgG2a and IgG3 by Assays A, B, C and D, respectively. The selectivity of inhibition of IgE is shown in Table 12.
Three groups of 5 Balb/c female mice per group are injected with both 100 μg FF1-4D5 antibody and 100 μg H∂A1 antibody on day 0. Group A is a control with no further treatment. On day 3 and 4, the mice are injected with 20 μg (±) methyl 11α,16-dihydroxy-4,4,16-trimethyl-9-oxoprosta-13E-en-1-oate (Group B) or 20 μg (±) methyl 11α,16-dihydroxy-16-methyl-9-oxoprosta-3,5Z,13E-trien-1-oate (Group C) as in Example 13. On day -1 and 8, […] of serum is recovered and analyzed for IgE, IgG1, IgG2a, IgG3 and IgM by Assays A, B, C, D and E, respectively.

[1] = Table 14, 20 μg days 3 and 4, day 8 (control 21703)
[2] = Table 12, 20 μg days 3 and 4, day 8 (control 10525)

SMILES	inhibition of IgG1 (20 μg days 3 and 4, Example 25)	IgG1 ± SD [1] [µg/mL]	inhibition of IgG1 (20 μg days 3 and 4, Example 23)	IgG1 ± SD [2] [µg/mL]	also measured
CCCCC(C)(O)C/C=C/[C@H]1[C@H](O)CC(=O)[C@@H]1C/C=C\C=CCC(=O)OC (relative stereo) [(±) methyl 11α,16-dihydroxy-16-methyl-9-oxoprosta-3,5Z,13-trien-1-oate]	not IgG1, IgG2a, IgG3 and IgM	18320 ± 4695	–	–	–
CCCCC(C)(O)C/C=C/[C@H]1[C@H](O)CC(=O)[C@@H]1C/C=C\CCCC(=O)OC (mixture of isomers) [(±) methyl 11α,16-dihydroxy-16-methyl-9-oxoprosta-5Z,13E-dien-1-oate]	–	–	–	–	IgG1 ± SD (40 μg IP days 3 and 4, day 8): 15666 ± 2300 µg/mL; IgG1 ± SD (40 μg IP days 3 and 4, day -1 baseline before treatment): 175 ± 32 µg/mL
CCCCC(C)(O)C/C=C/[C@H]1[C@H](O)CC(=O)[C@@H]1CCC1CC1CCC(=O)OC (relative stereo) [(±) methyl 2-[2-[3R-3α-hydroxy-2β-(4-hydroxy-4-methyl-1E-octenyl)-5-oxo-1α-cyclopentyl]ethyl]cyclopropanepropanoate]	–	–	not IgG1, IgG2a or IgG3	22573 ± 5690	–
CCCCC(C)(O)C/C=C/[C@H]1[C@H](O)CC(=O)[C@@H]1CCCC(C)(C)CCC(=O)OC (mixture of isomers) [(±) methyl 11α,16-dihydroxy-4,4,16-trimethyl-9-oxoprost-13E-en-1-oate]	not IgG1, IgG2a, IgG3 and IgM	22555 ± 5821	–	–	–
CCCCC(C)(O)C/C=C/[C@H]1[C@H](O)CC(=O)[C@@H]1CC1CC1CCCC(=O)OC (relative stereo) [(±) methyl 2-[2-[3R-3α-hydroxy-2β-(4-hydroxy-4-methyl-1E-octenyl)-5-oxo-1α-cyclopentyl]methyl]cyclopropanebutanoate]	–	–	not IgG1, IgG2a or IgG3	14470 ± 2997	–
